In paper PMC10023787, “Trio-pharmacophore DNA-encoded chemical library for simultaneous selection of fragments and linkers” (Nature Communications, 2023):

Experiments:
MMP-2 = target: T1, MMP-2 (Homo sapiens, UniProt P08253); experiment: MMP-2 inhibition assay (fluorogenic peptide substrate); type: biochemical; conditions: Figure 5d; fragment combination joined by linker; n.d: not detected; read-out: MMP2 IC50
T1 construct: purchased Sino Biological 10082-HNAH
T1 sequence (P08253 110-660): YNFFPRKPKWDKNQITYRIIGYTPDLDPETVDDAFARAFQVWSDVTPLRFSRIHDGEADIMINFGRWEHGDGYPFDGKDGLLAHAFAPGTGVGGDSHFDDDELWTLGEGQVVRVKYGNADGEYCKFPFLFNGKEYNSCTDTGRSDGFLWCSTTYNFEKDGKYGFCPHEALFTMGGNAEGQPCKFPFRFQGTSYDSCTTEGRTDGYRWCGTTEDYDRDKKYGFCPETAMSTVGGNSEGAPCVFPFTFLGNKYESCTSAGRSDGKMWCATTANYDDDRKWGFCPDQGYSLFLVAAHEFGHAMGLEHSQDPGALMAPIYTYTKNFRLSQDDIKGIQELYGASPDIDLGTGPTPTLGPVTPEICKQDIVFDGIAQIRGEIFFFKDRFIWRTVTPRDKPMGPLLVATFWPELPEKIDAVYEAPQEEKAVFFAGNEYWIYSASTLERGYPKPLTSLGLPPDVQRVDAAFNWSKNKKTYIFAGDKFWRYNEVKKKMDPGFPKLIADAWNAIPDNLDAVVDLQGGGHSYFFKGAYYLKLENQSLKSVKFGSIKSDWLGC
Procedure: (§1) The inhibition by the small molecule compounds against MMP-2/MMP-9 was measured using an assay probing the enzyme proteolytic activity on the substrate DNP-Pro-Leu-Gly-Met-Trp-Ser-Arg (Enzo Life Sciences, USA). All assays were performed in the assay buffer containing 50 mM Tris, 100 mM NaCl. 5 mM CaCl2, and 0.1% Brij 35, pH 7.5. Human proMMP-2 and proMMP-9 were purchased from Sino biological (Germany). The proMMPs were activated by 1 mM APMA in the assay buffer at 37 °C for 2 h. After activation, MMP-2 was diluted to 6.5 nM of final assay concentration, and MMP-9 was diluted by the buffer to reach 10 nM of final assay concentration. In each well, 49 μl of enzyme solution was incubated with 1 μl of compounds of series of concentration (nM-mM in DMSO) at RT for 30 min. 2 μl of the FRET substrate was added right before the measurement at a final concentration of 25 μM. The rate of hydrolysis was monitored by quantifying the emission at 360 nm (ex: 280 nm). The emission was measured with intervals of the 30 s for 30 min with Synergy H1 Plate Reader (Agilent, USA). The measurements were done in triplicate. […] Then, curves were plotted as a function of the concentration of the inhibitor against the relative enzyme activity. Vmax was derived from the detected […] signal for each concentration and logistic fitting was performed to obtain IC50 values using Origin 2019b (OriginLab).

MMP-9 = target: T2, MMP-9 (Homo sapiens, UniProt P14780); experiment: MMP-9 inhibition assay (fluorogenic peptide substrate); type: biochemical; conditions: Figure 5d; fragment combination joined by linker; n.d: not detected; read-out: MMP9 IC50
T2 construct: purchased Sino Biological 10327-HNAH
T2 sequence (P14780 107-707 limits assumed): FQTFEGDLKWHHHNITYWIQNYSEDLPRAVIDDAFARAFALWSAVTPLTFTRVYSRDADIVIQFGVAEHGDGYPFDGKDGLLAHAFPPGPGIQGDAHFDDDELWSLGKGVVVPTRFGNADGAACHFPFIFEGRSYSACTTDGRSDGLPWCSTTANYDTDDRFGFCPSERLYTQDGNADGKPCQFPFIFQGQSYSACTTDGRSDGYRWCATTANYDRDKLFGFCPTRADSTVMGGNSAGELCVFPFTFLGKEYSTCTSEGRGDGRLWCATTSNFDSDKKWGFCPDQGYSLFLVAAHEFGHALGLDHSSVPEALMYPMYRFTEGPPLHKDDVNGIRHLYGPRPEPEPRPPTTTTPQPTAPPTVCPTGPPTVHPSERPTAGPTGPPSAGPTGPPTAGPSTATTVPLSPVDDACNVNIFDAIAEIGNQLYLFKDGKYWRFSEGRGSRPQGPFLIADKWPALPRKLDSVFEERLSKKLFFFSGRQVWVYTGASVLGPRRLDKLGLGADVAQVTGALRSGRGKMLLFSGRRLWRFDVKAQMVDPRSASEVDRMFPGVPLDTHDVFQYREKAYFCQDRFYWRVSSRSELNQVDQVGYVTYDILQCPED
Procedure: as §1

| SMILES | IC50 (MMP-2) | IC50 (MMP-9) |
| --- | --- | --- |
| O=C(CCC(=O)NCc1c[nH]nn1)NCCOCCOCCNC(=O)CNC(=O)NC12CC3CC(CC(C3)C1)C2 [66_787 10] | 578 µM | – |
| O=C(CNC(=O)NC12CC3CC(CC(C3)C1)C2)NCCSCC(=O)NCc1c[nH]nn1 [66_787 24] | 861 µM | – |
| Cn1c(O)nc2cc(C(=O)NCC34CC5CC(CC(C5)C3)C4)cnc21 [66_826 1] | – | 234 µM |
| O=C(CNC(=O)NC12CC3CC(CC(C3)C1)C2)NCCCCCCCCNC(=O)c1cncc(O)c1 [66_828 4] | – | 247 µM |
| Cn1c(O)nc2cc(C(=O)NCCCCCCCCNC(=O)Cn3cnc4c(oc5ccccc54)c3=O)cnc21 [182_826 4] | 439 µM | – |
| Cn1c(O)nc2cc(C(=O)NCCOCCOCCNC(=O)Cn3cnc4c(oc5ccccc54)c3=O)cnc21 [182_826 10] | – | 283 µM |
| Cn1c(O)nc2cc(C(=O)NCCNC(=O)CSCCNC(=O)Cn3cnc4c(oc5ccccc54)c3=O)cnc21 [182_826 24] | – | 281 µM |
